Laboratory results from patent US20220098203A1 (priority 2018, published 2022).

Assays:
MAT2A homodimer = target: T1, MAT2A homodimer (Homo sapiens, UniProt P31153); assay: MAT2A biochemical assay (liberated phosphate, PiColorLock Gold); conditions: Table 5a; MAT2A biochemical assay; read-out: Enzyme Inhibition
T1 construct: inferred from the Ni sepharose purification and imidazole elution; made in house; host or cells: SF9 insect cells, recombinant baculovirus (Bac to Bac, pFASTBAC1)
In short: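 Readout is liberated phosphate (PiColorLock Gold), stoichiometric with SAM production, quantified against a potassium phosphate standard curve. Enzyme: recombinant MAT2A homodimer from Sf9, equilibrated 60 min at 25 °C with compound before 60 min reaction with substrate mix containing 500 μM ATP and 400 μM L-methionine.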

[1] = tested on: SAM in HCT116 MTAP-deleted cells; assay: Cellular assay of target engagement (SAM), LC-MS/MS; format: cell-based, human; conditions: Homo sapiens, HCT-116, Table 5a, 72 h, read-out: Cell 72 h SAM Inhibition (MTAP −/−)
In short: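 Target engagement was read as intracellular SAM, measured by LC-MS/MS with d3-SAM as internal standard in methanol/acetic acid extracts. These came from MTAP-deleted HCT116 colon carcinoma cells exposed to inhibitor for 72 hrs.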

HCT116 MTAP-/- = assay: Inhibition of cellular proliferation (Cell Titer Glo), HCT116 MTAP-/-; format: cell-based, human; conditions: Homo sapiens, HCT-116, 96 h, Table 5a, 4 days, read-out: 4 Day Relative Growth Inhibition (MTAP −/−)
In short: (§1)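 After 4 days of compound exposure at 37 °C, starting 24 h after plating, growth of the MTAP-wildtype and MTAP-deleted HCT116 pair was measured as ATP luminescence (CellTiter-Glo). The proliferation index was signal minus no-cell blank, divided by blank-corrected 0.2% DMSO control.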

HCT116 MTAP+/+ = assay: Inhibition of cellular proliferation (Cell Titer Glo), HCT116 MTAP+/+; format: cell-based; conditions: Homo sapiens, HCT-116, 96 h, Table 5a, 4 days, read-out: 4 Day Relative Growth Inhibition (MTAP +/+)
In short: as §1

T1 sequence (P31153 whole entry): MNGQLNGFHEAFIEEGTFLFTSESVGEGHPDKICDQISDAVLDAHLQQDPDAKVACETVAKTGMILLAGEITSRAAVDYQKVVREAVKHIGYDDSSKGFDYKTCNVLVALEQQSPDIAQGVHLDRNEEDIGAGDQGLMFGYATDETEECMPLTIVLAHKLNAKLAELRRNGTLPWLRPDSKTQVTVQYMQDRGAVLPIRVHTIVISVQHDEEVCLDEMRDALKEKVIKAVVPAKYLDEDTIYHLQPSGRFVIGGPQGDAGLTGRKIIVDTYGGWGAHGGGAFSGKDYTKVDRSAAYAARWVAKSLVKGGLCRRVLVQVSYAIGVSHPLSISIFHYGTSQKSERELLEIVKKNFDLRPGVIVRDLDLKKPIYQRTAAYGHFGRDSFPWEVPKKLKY

SMILES | IC50 (MAT2A homodimer) | IC50 [1] | IC50 (HCT116 MTAP-/-) | IC50 (HCT116 MTAP+/+)
CCOc1cnc2c(c1)N(c1ccc(Cl)cc1)C(=O)N(c1ccc3nn(C)cc3c1)C2 [Example 291] | 100 to 1000 nM | 100 to 1000 nM | > 1000 nM | > 1000 nM
COc1ccc(N2Cc3cnc(NCC(F)(F)F)nc3N(c3ccc(Cl)cc3)C2=O)cc1 [Example 252, 1-(4-chlorophenyl)-3-(4-methoxyphenyl)-7-((2,2,2-trifluoroethyl)amino)-3,4-dihydropyrimido[4,5-d]pyrimidin-2(1H)-one] | 100 to 1000 nM | 100 to 1000 nM | > 1000 nM | > 1000 nM
COc1ccc(N2Cc3cnc(NCC(F)(F)F)nc3N(c3ccc(CO)cc3)C2=O)cc1 [Example 202, 1-(4-(hydroxymethyl)phenyl)-3-(4-methoxyphenyl)-7-((2,2,2-trifluoroethyl)amino)-3,4-dihydropyrimido[4,5-d]pyrimidin-2(1H)-one] | 100 to 1000 nM | 100 to 1000 nM | 100 to 1000 nM | > 1000 nM
Cn1cc2cc(N3Cc4ncc(NCC(F)(F)F)nc4N(c4ccc(OC(F)F)cc4)C3=O)ccc2n1 [Example 414, 1-(4-(difluoromethoxy)phenyl)-3-(2-methyl-2H-indazol-5-yl)-7-((2,2,2-trifluoroethyl)amino)-3,4-dihydropteridin-2(1H)-one] | < 100 nM | < 100 nM | < 100 nM | > 1000 nM
CCOc1ccc2c(n1)N(c1ccc(OC(F)F)nc1)C(=O)N(c1ccc3nn(C)cc3c1)C2 [Example 275] | < 100 nM | 100 to 1000 nM | 100 to 1000 nM | 100 to 1000 nM
CCOc1ccc2c(n1)N(c1ccc(CF)nc1)C(=O)N(c1ccc3nn(C)cc3c1)C2 [Example 282, 7-ethoxy-1-(6-(fluoromethyl)pyridin-3-yl)-3-(2-methyl-2H-indazol-5-yl)-3,4-dihydropyrido[2,3-d]pyrimidin-2(1H)-one] | < 100 nM | < 100 nM | < 100 nM | > 1000 nM
COc1ccc(N2Cc3ccc(NCC(F)(F)F)nc3N(c3ccc(Cl)cc3)C2=O)cc1 [Example 407, 1-(4-chlorophenyl)-3-(4-methoxyphenyl)-7-((2,2,2-trifluoroethyl)amino)-3,4-dihydropyrido[2,3-d]pyrimidin-2(1H)-one] | 100 to 1000 nM | > 1000 nM | > 1000 nM | > 1000 nM
[2H]C([2H])([2H])Oc1ccc(N2C(=O)N(c3ccc4nn(C)cc4c3)Cc3ccc(OC(C)C(F)F)nc32)cc1 (centres unmarked) [Example 168, 7-((1,1-difluoropropan-2-yl)oxy)-1-(4-methoxy-d3-phenyl)-3-(2-methyl-2H-indazol-5-yl)-3,4-dihydropyrido[2,3-d]pyrimidin-2(1H)-one] | < 100 nM | < 100 nM | < 100 nM | > 1000 nM
COc1ccc(N2C(=O)N(c3ccc4nn(C)cc4c3)Cc3c(C)nc(NCC(F)(F)F)nc32)cc1 [Example 247, 1-(4-methoxyphenyl)-5-methyl-3-(2-methyl-2H-indazol-5-yl)-7-((2,2,2-trifluoroethyl)amino)-3,4-dihydropyrimido[4,5-d]pyrimidin-2(1H)-one] | < 100 nM | < 100 nM | < 100 nM | 100 to 1000 nM
CCOc1ccc2c(n1)N(c1ccc(OC)nc1)C(=O)N(c1ccc3nn(C)cc3c1)C2 [Example 142, 7-ethoxy-1-(6-methoxypyridin-3-yl)-3-(2-methyl-2H-indazol-5-yl)-3,4-dihydropyrido[2,3-d]pyrimidin-2(1H)-one] | < 100 nM | < 100 nM | 100 to 1000 nM | > 1000 nM
CCOc1cc2c(cn1)CN(c1ccc3nn(C)cc3c1)C(=O)N2c1ccc(OC(F)F)cc1 [Example 187, 1-(4-(difluoromethoxy)phenyl)-7-ethoxy-3-(2-methyl-2H-indazol-5-yl)-3,4-dihydropyrido[4,3-d]pyrimidin-2(1H)-one] | 100 to 1000 nM | > 1000 nM | > 1000 nM | > 1000 nM
[2H]C([2H])([2H])Oc1ccc(N2C(=O)N(c3ccc4nc(OC)n(C)c4c3)Cc3ccc(OCC(F)F)nc32)cc1 [Example 431, 7-(2,2-difluoroethoxy)-3-(2-methoxy-1-methyl-1H-benzo[d]imidazol-6-yl)-1-(4-(methoxy-d3)phenyl)-3,4-dihydropyrido[2,3-d]pyrimidin-2(1H)-one] | < 100 nM | < 100 nM | 100 to 1000 nM | > 1000 nM

More lines, now with the values ahead:

IC50 (MAT2A homodimer) | IC50 [1] | IC50 (HCT116 MTAP-/-) | IC50 (HCT116 MTAP+/+) | SMILES
< 100 nM | 100 to 1000 nM | 100 to 1000 nM | > 1000 nM | COc1ccc(N2C(=O)N(c3ccc4[nH]cnc4c3)Cc3cnc(NCC(F)(F)F)nc32)cc1 [Example 234, 3-(1H-benzo[d]imidazol-5-yl)-1-(4-methoxyphenyl)-7-((2,2,2-trifluoroethyl)amino)-3,4-dihydropyrimido[4,5-d]pyrimidin-2(1H)-one]
< 100 nM | 100 to 1000 nM | 100 to 1000 nM | > 1000 nM | [2H]C([2H])([2H])Oc1ccc(N2C(=O)N(c3ccc4nn(C)cc4c3)Cc3ccc(OCCF)nc32)cc1 [Example 163, 7-(2-fluoroethoxy)-1-(4-methoxy-d3-phenyl)-3-(2-methyl-2H-indazol-5-yl)-3,4-dihydropyrido[2,3-d]pyrimidin-2(1H)-one]
< 100 nM | 100 to 1000 nM | 100 to 1000 nM | 100 to 1000 nM | Cn1cc2cc(N3Cc4ccc(OCC(F)F)nc4N(c4ccc5ocnc5c4)C3=O)ccc2n1 [Example 283, 1-(benzo[d]oxazol-5-yl)-7-(2,2-difluoroethoxy)-3-(2-methyl-2H-indazol-5-yl)-3,4-dihydropyrido[2,3-d]pyrimidin-2(1H)-one]
< 100 nM | < 100 nM | < 100 nM | > 1000 nM | COc1ccc(N2C(=O)N(c3ccc4ncn(C)c4c3)Cc3ccc(OCC(F)F)nc32)cc1 [Example 139, 7-(2,2-difluoroethoxy)-1-(4-methoxyphenyl)-3-(1-methyl-1H-benzo[d]imidazol-6-yl)-3,4-dihydropyrido[2,3-d]pyrimidin-2(1H)-one]
< 100 nM | < 100 nM | < 100 nM | > 1000 nM | COc1ccc(N2C(=O)N(c3ccc4nn(C)cc4c3)Cc3cnc(NCC(F)(F)F)nc32)cc1 [Example 422, 1-(4-methoxyphenyl)-3-(2-methyl-2H-indazol-5-yl)-7-((2,2,2-trifluoroethyl)amino)-3,4-dihydropyrimido[4,5-d]pyrimidin2(1H)-one]
< 100 nM | < 100 nM | < 100 nM | 100 to 1000 nM | [2H]C([2H])([2H])Oc1ccc(N2C(=O)N(c3ccc4nn(C)c(OC)c4c3)Cc3ccc(OCC(F)F)nc32)cc1 [Example 104, 7-(2,2-difluoroethoxy)-3-(3-methoxy-2-methyl-2H-indazol-5-yl)-1-(4-(methoxy-d3)phenyl)-3,4-dihydropyrido[2,3-d]pyrimidin-2(1H)-one]
< 100 nM | < 100 nM | < 100 nM | > 1000 nM | Cn1cc2cc(N3Cc4ccc(OCC(F)F)nc4N(c4ccc(Br)cc4)C3=O)ccc2n1 [Example 133, 1-(4-bromophenyl)-7-(2,2-difluoroethoxy)-3-(2-methyl-2H-indazol-5-yl)-3,4-dihydropyrido[2,3-d]pyrimidin-2(1H)-one]
< 100 nM | < 100 nM | 100 to 1000 nM | > 1000 nM | [2H]C([2H])([2H])Oc1ccc(N2C(=O)N(c3ccc4ncsc4c3)Cc3ccc(OCC(F)F)nc32)cc1 [Example 102, 3-(benzo[d]thiazol-6-yl)-7-(2,2-difluoroethoxy)-1-(4-(methoxy-d3)phenyl)-3,4-dihydropyrido[2,3-d]pyrimidin-2(1H)-one]
< 100 nM | 100 to 1000 nM | 100 to 1000 nM | > 1000 nM | CCOc1ccc2c(n1)N(c1ccc(OC(F)F)cc1)C(=O)N(c1ccc3ncccc3c1)C2 [Example 112, 1-(4-(difluoromethoxy)phenyl)-7-ethoxy-3-(quinolin-6-yl)-3,4-dihydropyrido[2,3-d]pyrimidin-2(1H)-one]
< 100 nM | 100 to 1000 nM | 100 to 1000 nM | > 1000 nM | [2H]C([2H])([2H])Oc1ccc(N2C(=O)N(c3ccc4nn(C)cc4c3)Cc3ccc(OCC4CC4)nc32)cc1 [Example 164, 7-(cyclopropylmethoxy)-1-(4-methoxy-d3-phenyl)-3-(2-methyl-2H-indazol-5-yl)-3,4-dihydropyrido[2,3-d]pyrimidin-2(1H)-one]
< 100 nM | 100 to 1000 nM | 100 to 1000 nM | > 1000 nM | COc1ccc(N2Cc3cnc(NCC(F)(F)F)nc3N(c3ccc(-c4c[nH]cn4)cc3)C2=O)cc1 [Example 196, 1-(4-(1H-imidazol-4-yl)phenyl)-3-(4-methoxyphenyl)-7-((2,2,2-trifluoroethyl)amino)-3,4-dihydropyrimido[4,5-d]pyrimidin-2(1H)-one]
